Active and inactive are the calls of the source. No rule for the calls is given here.
System: CCRIS mutagenicity, Ames/micronucleus/aberration tests
Test: CCRIS mutagenicity studies
[1] = Test System: AMES SALMONELLA TYPHIMURIUM, Strain/Indicator: TA98, Metabolic Activation: HAMSTER, LIVER, S-9, AROCLOR 1254 (10%), Method: PREINCUBATION
[2] = Test System: AMES SALMONELLA TYPHIMURIUM, Strain/Indicator: TA98, Metabolic Activation: NONE, Method: PREINCUBATION
[3] = Test System: AMES SALMONELLA TYPHIMURIUM, Strain/Indicator: TA98, Metabolic Activation: RAT, LIVER, S-9, AROCLOR 1254 (10%), Method: PREINCUBATION
[4] = Test System: AMES SALMONELLA TYPHIMURIUM, Strain/Indicator: TA100, Metabolic Activation: HAMSTER, LIVER, S-9, AROCLOR 1254 (10%), Method: PREINCUBATION
[5] = Test System: AMES SALMONELLA TYPHIMURIUM, Strain/Indicator: TA100, Metabolic Activation: NONE, Method: PREINCUBATION
[6] = Test System: AMES SALMONELLA TYPHIMURIUM, Strain/Indicator: TA100, Metabolic Activation: RAT, LIVER, S-9, AROCLOR 1254 (10%), Method: PREINCUBATION
[7] = Test System: AMES SALMONELLA TYPHIMURIUM, Strain/Indicator: TA1535, Metabolic Activation: HAMSTER, LIVER, S-9, AROCLOR 1254 (10%), Method: PREINCUBATION
[8] = Test System: AMES SALMONELLA TYPHIMURIUM, Strain/Indicator: TA1535, Metabolic Activation: NONE, Method: PREINCUBATION
[9] = Test System: AMES SALMONELLA TYPHIMURIUM, Strain/Indicator: TA1535, Metabolic Activation: RAT, LIVER, S-9, AROCLOR 1254 (10%), Method: PREINCUBATION
[10] = Test System: AMES SALMONELLA TYPHIMURIUM, Strain/Indicator: TA1537, Metabolic Activation: NONE, Method: PREINCUBATION
[11] = Test System: AMES SALMONELLA TYPHIMURIUM, Strain/Indicator: TA98, Metabolic Activation: NONE, Method: STANDARD PLATE
[12] = Test System: AMES SALMONELLA TYPHIMURIUM, Strain/Indicator: TA98, Metabolic Activation: RAT, LIVER, S-9, AROCLOR 1254, Method: STANDARD PLATE
[13] = Test System: AMES SALMONELLA TYPHIMURIUM, Strain/Indicator: TA100, Metabolic Activation: NONE, Method: STANDARD PLATE
[14] = Test System: AMES SALMONELLA TYPHIMURIUM, Strain/Indicator: TA100, Metabolic Activation: RAT, LIVER, S-9, AROCLOR 1254, Method: STANDARD PLATE

With `CCCCCCCCOP(=O)(OCCCCCCCC)OCCCCCCCC` the mutagenic call [1] was “inactive; negative”, the mutagenic call [2] was “inactive; negative” and the mutagenic call [3] was “inactive; negative”. The mutagenic call [4] was “inactive; negative”, the mutagenic call [5] was “inactive; negative” and the mutagenic call [6] was “inactive; negative”. The mutagenic call [7] was “inactive; negative”, the mutagenic call [8] was “inactive; negative” and the mutagenic call [9] was “inactive; negative”. For the same molecule, the mutagenic call (Test System: AMES SALMONELLA TYPHIMURIUM, Strain/Indicator: TA1537, Metabolic Activation: HAMSTER, LIVER, S-9, AROCLOR 1254 (10%), Method: PREINCUBATION) was “inactive; negative”, the mutagenic call [10] was “inactive; negative” and the mutagenic call (Test System: AMES SALMONELLA TYPHIMURIUM, Strain/Indicator: TA1537, Metabolic Activation: RAT, LIVER, S-9, AROCLOR 1254 (10%), Method: PREINCUBATION) was “inactive; negative”.
In the case of `Nc1n[nH]c(=S)s1`, the mutagenic call (Test System: AMES SALMONELLA TYPHIMURIUM, Strain/Indicator: TA98, Metabolic Activation: HAMSTER, LIVER, S-9, AROCLOR 1254, Method: STANDARD PLATE) is reported as “inactive; negative”, the mutagenic call [11] is reported as “inactive; negative” and the mutagenic call [12] is reported as “inactive; negative”. The mutagenic call (Test System: AMES SALMONELLA TYPHIMURIUM, Strain/Indicator: TA100, Metabolic Activation: HAMSTER, LIVER, S-9, AROCLOR 1254, Method: STANDARD PLATE) was “inactive; negative”, the mutagenic call [13] was “inactive; negative” and the mutagenic call [14] was “inactive; negative”. The mutagenic call (Test System: AMES SALMONELLA TYPHIMURIUM, Strain/Indicator: TA1535, Metabolic Activation: HAMSTER, LIVER, S-9, AROCLOR 1254, Method: STANDARD PLATE) was “inactive; negative”, the mutagenic call (Test System: AMES SALMONELLA TYPHIMURIUM, Strain/Indicator: TA1535, Metabolic Activation: NONE, Method: STANDARD PLATE) was “inactive; negative” and the mutagenic call (Test System: AMES SALMONELLA TYPHIMURIUM, Strain/Indicator: TA1535, Metabolic Activation: RAT, LIVER, S-9, AROCLOR 1254, Method: STANDARD PLATE) was “inactive; negative”. The mutagenic call (Test System: AMES SALMONELLA TYPHIMURIUM, Strain/Indicator: TA1537, Metabolic Activation: HAMSTER, LIVER, S-9, AROCLOR 1254, Method: STANDARD PLATE) was “inactive; negative”, the mutagenic call (Test System: AMES SALMONELLA TYPHIMURIUM, Strain/Indicator: TA1537, Metabolic Activation: NONE, Method: STANDARD PLATE) was “inactive; negative” and the mutagenic call (Test System: AMES SALMONELLA TYPHIMURIUM, Strain/Indicator: TA1537, Metabolic Activation: RAT, LIVER, S-9, AROCLOR 1254, Method: STANDARD PLATE) was “inactive; negative”. For the same molecule, the mutagenic call (Test System: AMES SALMONELLA TYPHIMURIUM, Strain/Indicator: TA1538, Metabolic Activation: HAMSTER, LIVER, S-9, AROCLOR 1254, Method: STANDARD PLATE) was “inactive; negative”, the mutagenic call (Test System: AMES SALMONELLA TYPHIMURIUM, Strain/Indicator: TA1538, Metabolic Activation: NONE, Method: STANDARD PLATE) was “inactive; negative” and the mutagenic call (Test System: AMES SALMONELLA TYPHIMURIUM, Strain/Indicator: TA1538, Metabolic Activation: RAT, LIVER, S-9, AROCLOR 1254, Method: STANDARD PLATE) was “inactive; negative”. The mutagenic call (Test System: MOUSE LYMPHOMA, Strain/Indicator: L5178Y (TK+/TK-), Metabolic Activation: NONE, Method: SUSPENSION/PLATE) was “active; positive. reevaluation of results: positive” and the mutagenic call (Test System: Mouse lymphoma, Strain/Indicator: L5178Y (tk+/tk-), Metabolic Activation: Rat, Liver, S-9, Aroclor 1254, Method: Suspension/plate) was “inactive; negative”.
For `Nc1ccccc1SCSc1ccccc1N`, the mutagenic call [11] was “inactive; negative”, the mutagenic call [12] was “inactive; negative” and the mutagenic call [13] was “inactive; negative”. The mutagenic call [14] was “active; positive”.
In the case of `Oc1cc(Cl)c(Cl)c(Cl)c1`, the mutagenic call (End Point: IN VITRO CHROMOSOMAL ABERRATIONS, Test System: CHINESE HAMSTER LUNG CELLS (CHL), Metabolic Activation: RAT, LIVER, S-9, KC-400) is reported as “inactive; negative; authors describe results as equivocal”, the mutagenic call (End Point: IN VITRO CHROMOSOMAL ABERRATIONS, Test System: CHINESE HAMSTER OVARY CELLS (CHO), Metabolic Activation: NONE) is reported as “inactive; negative” and the mutagenic call (End Point: IN VITRO CHROMOSOMAL ABERRATIONS, Test System: CHINESE HAMSTER OVARY CELLS (CHO), Metabolic Activation: RAT, LIVER, S-9, AROCLOR 1254) is reported as “inactive; negative”. The mutagenic call (Test System: AMES SALMONELLA TYPHIMURIUM, Strain/Indicator: TA97, Metabolic Activation: HAMSTER, LIVER, S-9, AROCLOR 1254 (10%), Method: PREINCUBATION) was “inactive; negative”, the mutagenic call (Test System: AMES SALMONELLA TYPHIMURIUM, Strain/Indicator: TA97, Metabolic Activation: HAMSTER, LIVER, S-9, AROCLOR 1254 (30%), Method: PREINCUBATION) was “inactive; negative” and the mutagenic call (Test System: AMES SALMONELLA TYPHIMURIUM, Strain/Indicator: TA97, Metabolic Activation: NONE, Method: PREINCUBATION) was “inactive; negative”. For the same molecule, the mutagenic call (Test System: AMES SALMONELLA TYPHIMURIUM, Strain/Indicator: TA97, Metabolic Activation: RAT, LIVER, S-9, AROCLOR 1254 (10%), Method: PREINCUBATION) was “inactive; negative”, the mutagenic call (Test System: AMES SALMONELLA TYPHIMURIUM, Strain/Indicator: TA97, Metabolic Activation: RAT, LIVER, S-9, AROCLOR 1254 (30%), Method: PREINCUBATION) was “inactive; negative” and the mutagenic call [1] was “inactive; negative”. The mutagenic call (Test System: AMES SALMONELLA TYPHIMURIUM, Strain/Indicator: TA98, Metabolic Activation: HAMSTER, LIVER, S-9, AROCLOR 1254 (30%), Method: PREINCUBATION) was “inactive; negative”, the mutagenic call [2] was “inactive; negative” and the mutagenic call [3] was “inactive; negative”. For the same molecule, the mutagenic call (Test System: AMES SALMONELLA TYPHIMURIUM, Strain/Indicator: TA98, Metabolic Activation: RAT, LIVER, S-9, AROCLOR 1254 (30%), Method: PREINCUBATION) was “inactive; negative”, the mutagenic call [4] was “inactive; negative” and the mutagenic call (Test System: AMES SALMONELLA TYPHIMURIUM, Strain/Indicator: TA100, Metabolic Activation: HAMSTER, LIVER, S-9, AROCLOR 1254 (30%), Method: PREINCUBATION) was “inactive; negative”. The mutagenic call [5] was “inactive; negative”, the mutagenic call [6] was “inactive; negative” and the mutagenic call (Test System: AMES SALMONELLA TYPHIMURIUM, Strain/Indicator: TA100, Metabolic Activation: RAT, LIVER, S-9, AROCLOR 1254 (30%), Method: PREINCUBATION) was “inactive; negative”. For the same molecule, the mutagenic call [7] was “inactive; negative”, the mutagenic call (Test System: AMES SALMONELLA TYPHIMURIUM, Strain/Indicator: TA1535, Metabolic Activation: HAMSTER, LIVER, S-9, AROCLOR 1254 (30%), Method: PREINCUBATION) was “inactive; negative” and the mutagenic call [8] was “inactive; negative”. For the same molecule, the mutagenic call [9] was “inactive; negative”, the mutagenic call (Test System: AMES SALMONELLA TYPHIMURIUM, Strain/Indicator: TA1535, Metabolic Activation: RAT, LIVER, S-9, AROCLOR 1254 (30%), Method: PREINCUBATION) was “inactive; negative” and the mutagenic call (Test System: AMES SALMONELLA TYPHIMURIUM, Strain/Indicator: TA1537, Metabolic Activation: HAMSTER, LIVER, S-9, AROCLOR 1254 (30%), Method: PREINCUBATION) was “inactive; negative”. For the same molecule, the mutagenic call [10] was “inactive; negative” and the mutagenic call (Test System: AMES SALMONELLA TYPHIMURIUM, Strain/Indicator: TA1537, Metabolic Activation: RAT, LIVER, S-9, AROCLOR 1254 (30%), Method: PREINCUBATION) was “inactive; negative”.

Source: PubChem BioAssay AID1259407 (Chemical Carcinogenesis Research Information System (CCRIS), 2018)
